From patent US5597798A, “Taxol and epidermal growth factor used to enhance treatment of ovarian cancer” (The Regents of the University of California, priority 1994, dated 1997)
Like-named read-outs stand apart in the source and are kept apart here.

Key:
Assay in all cases: Colony forming assay, effect of EGF on cisplatin sensitivity
Type in all cases: cell-based, human
[1] = system: KB-3-1 cervix cancer cells
Description: (§1) The following cell lines were used in these studies: 2008 human ovarian carcinoma (Disaia, et al., Am. J. Obstet. Gynecol. 114:978 (1972)), COLO 316 human ovarian carcinoma (Woods et al., Cancer Res. 39:4449 (1979)), a DDP resistant variant 2008/C13*, derived from the parent 2008 cell line (Andrews, et al., Cancer Res. 45:6250 (1985)), A549 non-small cell lung cancer (Lieber et al., Int. J. Cancer 17:62 (1976)), NCI-H520 squamous cell lung cancer (Brower et al., Cancer Res. 46: 798 (1986)), NCI-H596 adenosquamous lung cancer (Banks-Schlegel et al., Cancer Res. 45: 1187 (1985)), UMC 31 small cell lung cancer cells (Graziano et al., Genes, Chromosomes and Cancer 3: 283 (1991)), GLC4 small cell lung cancer cells (Zijlstra et al., Cancer Res. 47: 1780 (1987)), UMCC10b head and neck cancer cells (Krause et al., Arch. Otolayngol. 107: 703 (1981)), 5637 bladder cancer cells (Fogh et al., J. Natl. Cancer Inst. 58: 209 (1977)), MIA PaCa-2 pancreatic cancer cells (Yunis et al., Int. J. Cancer 19:128 (1977)), Du 145 prostate cancer (Mickey Cancer Res. 37: 4049 (1977)) , COLO 205 colon cancer (Semple et al., Cancer Res. 38:1345 (1978)), KB-3-1 cervix cancer (Akiyama et al., Somat. Cell Mol. Genet. 11: 117 (1985)) , MCF-7 breast cancer (Soule et al., J. Natl. Cancer Inst. 51:1409 (1973)), A431 epidermoid carcinoma of the skin (Giard et al., J. Natl. Cancer Inst. 51: 1417 (1973)) and T-289 melanoma cells (Taetle et al., Cancer (Philadelphia) 60: 1836 (1987)). The human cell line 2008 was established from a patient with a serous cystadenocarcinoma of the ovary. The 8-fold DDP resistant cell line 2008/C13* was generated by 13 monthly selections with […], followed by chronic exposure to stepwise increasing concentrations of DDP, from 0.25 to 5 uM. A resistant subline, designated 2008/C13*5, was obtained by monthly selections with 1 μM DDP. The cells were grown on tissue culture dishes in a humidified incubator at 37° C. and 5% CO2 atmosphere. Cells were grown in either of the following types of media: RPMI 1640, RPMI 1640 plus HITES buffer, DMEM low glucose, or DMEM high glucose supplemented with 5% to 10% heat inactivated fetal calf serum and 2 mM glutamine.
(§2) Colony forming assays were used to assess the effect of each drug on the sensitivity of various tumor cell lines to cytotoxic agents (Andrews, et al., Chem.-Biol. Interact 65:51-58 (1988)). For assays performed on plastic tissue culture dishes, five ml of suspended cells were plated on 60-mm polystyrene tissue culture dishes (Corning Glass Works, Corning, N.Y.). Cells were allowed to attach overnight, then 10 μl of stock drug solution was added to triplicate plates at each drug concentration. Control plates received diluent alone. After 1 h, the drug-containing medium was aspirated and replaced with drug free medium. Plates were incubated in humidified 5% CO2 air, and after 14 days plates were fixed with methanol and stained with Giemsa. Colonies of over 60 cells were counted macroscopically.
(§3) The drug containing media was removed and cells were resuspended in 5 ml of complete medium containing 0.36% low melting-temperature agarose at 37° C. The cell suspension was mixed well and then aliquotted at 1 ml per dish in triplicate onto prepared 35 mm dishes containing a basement layer of solidified 1% agarose. The cell-containing layer was allowed to solidify at 4° C. for 10 minutes, and the dishes were incubated at 37° C. in humidified 5% CO2. Colonies greater than 125 um were counted after 5 days.
(§4) ^a Dose response curves were determined by colony forming assay. Cell

[2] = system: GLC 4 small cell lung cancer cells
Description: as §1, §2, §3, §4

[3] = system: MCF-7 breast cancer cells
Description: as §1, §2, §3, §4

[4] = system: A549 non-small cell lung cancer cells
Description: as §1, §2, §3, §4

[5] = system: UMC 31 small cell lung cancer cells
Description: as §1, §2, §3, §4

[6] = system: MIA PaCa-2 pancreatic cancer cells
Description: as §1, §2, §3, §4

[7] = system: Du 145 prostate cancer cells
Description: as §1, §2, §3, §4

[8] = system: COLO 205 colon cancer cells
Description: as §1, §2, §3, §4

[9] = system: UMSCC 10b head and neck cancer cells
Description: as §1, §2, §3, §4

[10] = system: T-289 malignant melanoma cells
Description: as §1, §2, §3, §4

[11] = ratio of IC50 in control and EGF-treated cells
[12] = read-out: IC50 in absence of EGF, cisplatin 1 h, no EGF
[13] = read-out: IC50 in presence of EGF, 10 nM EGF and cisplatin concurrently for 1 h

## N.N.[Cl][Pt][Cl] [cisplatin]
[1]; [11]
  Dose modifying factor: 2.0
[1]; [12]
  IC50: 9.71 µM
[1]; [13]
  IC50: 4.79 µM
[2]; [11]
  Dose modifying factor: 0.7
[2]; [12]
  IC50: 12.2 µM
[2]; [13]
  IC50: 18.2 µM
[3]; [11]
  Dose modifying factor: 1.0
[3]; [12]
  IC50: 3.82 µM
[3]; [13]
  IC50: 3.8 µM
[4]; [11]
  Dose modifying factor: 2.0
[4]; read-out: IC50 in absence and presence of EGF (single figure printed), 10 nM EGF and cisplatin concurrently for 1 h
  IC50: 14.5 µM
[5]; [11]
  Dose modifying factor: 0.8
[5]; [12]
  IC50: 5.4 µM
[5]; [13]
  IC50: 6.86 µM
[6]; [11]
  Dose modifying factor: 1.4
[6]; [12]
  IC50: 7.65 µM
[6]; [13]
  IC50: 5.53 µM
[7]; [11]
  Dose modifying factor: 1.5
[7]; [12]
  IC50: 8.52 µM
[7]; [13]
  IC50: 5.52 µM
[8]; [11]
  Dose modifying factor: 1.7
[8]; [12]
  IC50: 27.6 µM
[8]; [13]
  IC50: 16.5 µM
[9]; [11]
  Dose modifying factor: 3.8
[9]; [12]
  IC50: 6.76 µM
[9]; [13]
  IC50: 1.76 µM
[10]; [11]
  Dose modifying factor: 0.8
[10]; [12]
  IC50: 2.02 µM
[10]; [13]
  IC50: 2.49 µM
